Experimental data published in the kinase profiling compilation of Christmann-Franck et al. (2016).

How the values were obtained:
Assay in all cases: radiometric filter-binding kinase assay, Kinase HotSpot
Settings in all cases: compound 0.5 µM; ATP 10 µM
ABL2 (human) = ABL2 (human) (UniProt P42684)
ACVRL1 (human) = ACVRL1 (human) (UniProt P37023)
AKT1 (human) = AKT1 (human) (UniProt P31749)
AURKB (human) = AURKB (human) (UniProt Q96GD4)
BRSK2 (human) = BRSK2 (human) (UniProt Q8IWQ3)
CDK1 CCNA2 (human) = CDK1 CCNA2 (human) (UniProt P06493+P20248)
CDK2 CCNE1 (human) = CDK2 CCNE1 (human) (UniProt P24941+P24864)
CDK9 CCNT1 (human) = CDK9 CCNT1 (human) (UniProt P50750+O60563)
CLK4 (human) = CLK4 (human) (UniProt Q9HAZ1)
CSNK1A1 (human) = CSNK1A1 (human) (UniProt P48729)
Sequence of CSNK1A1 (human) (P48729 whole entry, looked up): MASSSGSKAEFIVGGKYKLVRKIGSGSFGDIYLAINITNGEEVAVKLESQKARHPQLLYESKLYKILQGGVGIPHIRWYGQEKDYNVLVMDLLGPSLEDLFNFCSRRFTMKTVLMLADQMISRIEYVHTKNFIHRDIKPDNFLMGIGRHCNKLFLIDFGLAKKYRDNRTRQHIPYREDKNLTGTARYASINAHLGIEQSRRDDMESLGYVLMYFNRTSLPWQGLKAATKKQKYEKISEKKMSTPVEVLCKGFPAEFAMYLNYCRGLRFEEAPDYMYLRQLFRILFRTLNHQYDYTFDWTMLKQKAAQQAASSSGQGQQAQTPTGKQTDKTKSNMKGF

CSNK1E (human) = CSNK1E (human) (UniProt P49674)
CSNK1G3 (human) = CSNK1G3 (human) (UniProt Q9Y6M4)
CSNK2A2 (human) = CSNK2A2 (human) (UniProt P19784)
EPHA2 (human) = EPHA2 (human) (UniProt P29317)
EPHB1 (human) = EPHB1 (human) (UniProt P54762)
FLT1 (human) = FLT1 (human) (UniProt P17948)
FLT3 (human) = FLT3 (human) (UniProt P36888)
Sequence of FLT3 (human) (P36888 whole entry, looked up): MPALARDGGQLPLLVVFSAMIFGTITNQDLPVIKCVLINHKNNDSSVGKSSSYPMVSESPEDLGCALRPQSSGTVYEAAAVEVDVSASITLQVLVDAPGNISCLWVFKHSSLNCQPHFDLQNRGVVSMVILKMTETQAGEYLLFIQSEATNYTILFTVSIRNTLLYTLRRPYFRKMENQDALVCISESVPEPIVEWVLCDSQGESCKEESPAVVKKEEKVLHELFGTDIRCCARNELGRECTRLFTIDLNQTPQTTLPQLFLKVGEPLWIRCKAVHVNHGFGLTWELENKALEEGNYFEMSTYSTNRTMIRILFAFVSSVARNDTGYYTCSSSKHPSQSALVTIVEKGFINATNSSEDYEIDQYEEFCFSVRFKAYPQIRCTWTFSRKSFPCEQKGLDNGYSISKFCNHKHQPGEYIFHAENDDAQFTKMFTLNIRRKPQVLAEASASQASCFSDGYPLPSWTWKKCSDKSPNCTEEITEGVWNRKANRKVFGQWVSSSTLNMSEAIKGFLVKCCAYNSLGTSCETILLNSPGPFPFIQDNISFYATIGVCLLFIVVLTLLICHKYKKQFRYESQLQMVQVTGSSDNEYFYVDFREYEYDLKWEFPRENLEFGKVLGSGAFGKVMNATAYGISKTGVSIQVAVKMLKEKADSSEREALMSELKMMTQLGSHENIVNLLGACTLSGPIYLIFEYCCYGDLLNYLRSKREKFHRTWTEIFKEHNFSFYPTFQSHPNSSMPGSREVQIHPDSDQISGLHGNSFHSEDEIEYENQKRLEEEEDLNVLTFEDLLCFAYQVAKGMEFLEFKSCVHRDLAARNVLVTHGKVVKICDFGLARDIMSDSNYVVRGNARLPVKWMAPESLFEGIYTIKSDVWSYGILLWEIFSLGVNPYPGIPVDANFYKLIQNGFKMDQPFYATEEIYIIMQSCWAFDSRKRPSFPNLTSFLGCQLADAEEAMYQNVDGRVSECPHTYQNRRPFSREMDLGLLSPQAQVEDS

GRK5 (human) = GRK5 (human) (UniProt P34947)
Sequence of GRK5 (human) (P34947 whole entry, looked up): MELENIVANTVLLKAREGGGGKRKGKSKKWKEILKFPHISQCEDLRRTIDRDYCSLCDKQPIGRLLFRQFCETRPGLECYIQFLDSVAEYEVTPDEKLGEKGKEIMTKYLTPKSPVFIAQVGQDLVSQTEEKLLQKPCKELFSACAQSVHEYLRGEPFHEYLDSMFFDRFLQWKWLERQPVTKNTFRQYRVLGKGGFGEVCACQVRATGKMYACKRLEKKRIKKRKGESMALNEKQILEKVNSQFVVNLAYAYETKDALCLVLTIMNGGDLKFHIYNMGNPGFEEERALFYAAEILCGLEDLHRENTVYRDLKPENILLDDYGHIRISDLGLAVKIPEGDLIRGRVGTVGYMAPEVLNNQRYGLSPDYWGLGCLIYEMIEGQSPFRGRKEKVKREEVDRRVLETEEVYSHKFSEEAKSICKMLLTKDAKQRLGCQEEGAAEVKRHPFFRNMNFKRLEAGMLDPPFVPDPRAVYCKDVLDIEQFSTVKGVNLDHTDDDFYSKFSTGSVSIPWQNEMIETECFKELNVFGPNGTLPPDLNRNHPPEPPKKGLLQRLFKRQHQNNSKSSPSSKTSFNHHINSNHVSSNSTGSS

GRK7 (human) = GRK7 (human) (UniProt Q8WTQ7)
HIPK3 (human) = HIPK3 (human) (UniProt Q9H422)
Sequence of HIPK3 (human) (Q9H422 whole entry, looked up): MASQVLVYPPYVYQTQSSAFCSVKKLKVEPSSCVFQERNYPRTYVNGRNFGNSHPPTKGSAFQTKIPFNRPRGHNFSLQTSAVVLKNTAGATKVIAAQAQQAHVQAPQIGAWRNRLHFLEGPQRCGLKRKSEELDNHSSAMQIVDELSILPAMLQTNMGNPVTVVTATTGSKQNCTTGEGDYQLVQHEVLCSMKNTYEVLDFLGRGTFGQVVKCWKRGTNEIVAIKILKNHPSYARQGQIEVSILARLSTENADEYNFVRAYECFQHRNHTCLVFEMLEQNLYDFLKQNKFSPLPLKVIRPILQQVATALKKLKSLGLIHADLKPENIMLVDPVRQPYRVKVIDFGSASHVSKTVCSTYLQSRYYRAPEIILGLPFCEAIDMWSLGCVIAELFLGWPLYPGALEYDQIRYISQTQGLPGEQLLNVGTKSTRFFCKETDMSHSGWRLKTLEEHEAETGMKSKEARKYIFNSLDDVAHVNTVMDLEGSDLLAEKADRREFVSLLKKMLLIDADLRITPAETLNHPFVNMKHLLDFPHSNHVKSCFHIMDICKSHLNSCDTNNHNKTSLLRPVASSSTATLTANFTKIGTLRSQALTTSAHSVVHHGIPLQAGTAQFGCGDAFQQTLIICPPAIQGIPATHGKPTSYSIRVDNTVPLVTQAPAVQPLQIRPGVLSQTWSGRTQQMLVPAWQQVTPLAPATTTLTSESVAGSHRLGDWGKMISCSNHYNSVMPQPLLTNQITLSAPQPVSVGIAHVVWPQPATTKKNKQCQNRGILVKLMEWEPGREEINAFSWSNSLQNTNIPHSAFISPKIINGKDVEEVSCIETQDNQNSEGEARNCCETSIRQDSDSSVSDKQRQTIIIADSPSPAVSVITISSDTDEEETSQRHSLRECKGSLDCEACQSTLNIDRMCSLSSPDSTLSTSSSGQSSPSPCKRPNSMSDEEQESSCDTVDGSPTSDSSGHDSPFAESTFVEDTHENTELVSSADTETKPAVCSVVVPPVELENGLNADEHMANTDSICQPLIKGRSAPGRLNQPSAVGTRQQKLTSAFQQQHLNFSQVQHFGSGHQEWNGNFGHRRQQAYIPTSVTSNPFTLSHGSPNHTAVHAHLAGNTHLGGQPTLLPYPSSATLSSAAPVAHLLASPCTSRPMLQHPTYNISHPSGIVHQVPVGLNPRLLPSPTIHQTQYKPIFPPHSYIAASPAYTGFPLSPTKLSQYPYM

HIPK4 (human) = HIPK4 (human) (UniProt Q8NE63)
KDR (human) = KDR (human) (UniProt P35968)
KIT (human) = KIT (human) (UniProt P10721)
MAPK9 (human) = MAPK9 (human) (UniProt P45984)
MAPKAPK5 (human) = MAPKAPK5 (human) (UniProt Q8IW41)
MARK2 (human) = MARK2 (human) (UniProt Q7KZI7)
MERTK (human) = MERTK (human) (UniProt Q12866)
MYLK (human) = MYLK (human) (UniProt Q15746)
NEK2 (human) = NEK2 (human) (UniProt P51955)
NLK (human) = NLK (human) (UniProt Q9UBE8)
NTRK3 (human) = NTRK3 (human) (UniProt Q16288)
NUAK1 (human) = NUAK1 (human) (UniProt O60285)
PIM1 (human) = PIM1 (human) (UniProt P11309)
PRKACA (human) = PRKACA (human) (UniProt P17612)
PRKCB2 (human) = PRKCB2 (human) (UniProt P05771)
PRKCG (human) = PRKCG (human) (UniProt P05129)
ROCK2 (human) = ROCK2 (human) (UniProt O75116)
SRPK3 (human) = SRPK3 (human) (UniProt Q9UPE1)
STK24 (human) = STK24 (human) (UniProt Q9Y6E0)
STK4 (human) = STK4 (human) (UniProt Q13043)
TNK2 (human) = TNK2 (human) (UniProt Q07912)
WNK3 (human) = WNK3 (human) (UniProt Q9BYP7)
Sequence of WNK3 (human) (Q9BYP7 whole entry, looked up): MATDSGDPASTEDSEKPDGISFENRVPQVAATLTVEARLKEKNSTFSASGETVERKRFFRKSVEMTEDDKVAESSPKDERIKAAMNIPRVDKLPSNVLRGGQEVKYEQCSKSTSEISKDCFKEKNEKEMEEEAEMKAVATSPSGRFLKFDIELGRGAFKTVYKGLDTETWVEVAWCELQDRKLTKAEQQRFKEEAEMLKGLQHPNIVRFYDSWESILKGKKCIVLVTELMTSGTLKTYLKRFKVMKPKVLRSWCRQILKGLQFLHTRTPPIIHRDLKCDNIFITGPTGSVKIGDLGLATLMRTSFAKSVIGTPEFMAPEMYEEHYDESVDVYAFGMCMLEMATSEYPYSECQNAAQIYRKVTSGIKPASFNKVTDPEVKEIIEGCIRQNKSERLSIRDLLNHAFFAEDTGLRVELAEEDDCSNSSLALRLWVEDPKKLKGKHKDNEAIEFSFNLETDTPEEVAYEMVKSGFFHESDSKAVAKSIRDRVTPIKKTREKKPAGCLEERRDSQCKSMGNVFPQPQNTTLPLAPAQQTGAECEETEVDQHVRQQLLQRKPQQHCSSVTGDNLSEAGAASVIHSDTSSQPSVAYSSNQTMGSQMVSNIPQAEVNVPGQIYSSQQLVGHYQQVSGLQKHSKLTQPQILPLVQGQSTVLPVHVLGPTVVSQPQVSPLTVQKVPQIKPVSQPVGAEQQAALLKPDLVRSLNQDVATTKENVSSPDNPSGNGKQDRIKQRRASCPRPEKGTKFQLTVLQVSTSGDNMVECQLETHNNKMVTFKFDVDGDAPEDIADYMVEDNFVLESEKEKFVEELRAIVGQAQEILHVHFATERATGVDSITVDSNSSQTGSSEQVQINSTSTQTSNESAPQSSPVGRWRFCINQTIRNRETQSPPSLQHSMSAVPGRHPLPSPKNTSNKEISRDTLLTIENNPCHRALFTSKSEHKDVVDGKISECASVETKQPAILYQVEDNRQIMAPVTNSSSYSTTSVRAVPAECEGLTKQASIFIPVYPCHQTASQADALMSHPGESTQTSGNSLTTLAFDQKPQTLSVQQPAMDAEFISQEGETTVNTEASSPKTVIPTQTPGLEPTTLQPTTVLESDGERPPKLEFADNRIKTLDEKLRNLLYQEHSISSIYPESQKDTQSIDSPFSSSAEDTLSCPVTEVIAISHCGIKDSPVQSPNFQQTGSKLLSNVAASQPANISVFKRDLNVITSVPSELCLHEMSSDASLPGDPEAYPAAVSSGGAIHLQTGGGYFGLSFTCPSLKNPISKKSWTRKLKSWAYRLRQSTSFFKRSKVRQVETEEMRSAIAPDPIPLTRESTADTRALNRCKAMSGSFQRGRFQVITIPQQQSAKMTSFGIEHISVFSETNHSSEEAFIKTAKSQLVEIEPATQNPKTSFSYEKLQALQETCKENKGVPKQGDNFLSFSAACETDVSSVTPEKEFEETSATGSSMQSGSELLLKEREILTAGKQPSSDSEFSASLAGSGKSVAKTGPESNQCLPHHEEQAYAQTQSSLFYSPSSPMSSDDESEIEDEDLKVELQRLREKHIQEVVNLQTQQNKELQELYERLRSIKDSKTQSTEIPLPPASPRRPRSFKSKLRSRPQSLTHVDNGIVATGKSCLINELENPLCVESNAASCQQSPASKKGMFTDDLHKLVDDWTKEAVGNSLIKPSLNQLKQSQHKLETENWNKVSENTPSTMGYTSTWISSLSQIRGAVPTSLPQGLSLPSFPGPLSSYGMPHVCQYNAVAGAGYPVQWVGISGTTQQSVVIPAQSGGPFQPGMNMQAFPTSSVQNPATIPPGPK

CCN(CC)CCNC(=O)c1c(C)[nH]c(/C=C2\C(=O)Nc3ccc(Cl)cc32)c1C
residual activity (ABL2 (human)): 46.8%
residual activity (ACVRL1 (human)): 89%
residual activity (AKT1 (human)): 102%
residual activity (AURKB (human)): 31.9%
residual activity (BRSK2 (human)): 53.7%
residual activity (CDK1 CCNA2 (human)): 87.5%
residual activity (CDK2 CCNE1 (human)): 90%
residual activity (CDK9 CCNT1 (human)): 58.8%
residual activity (CLK4 (human)): 16.8%
residual activity (CSNK1A1 (human)): 75.7%
residual activity (CSNK1E (human)): 46.7%
residual activity (CSNK1G3 (human)): 47.7%
residual activity (CSNK2A2 (human)): 64.3%
residual activity (EPHA2 (human)): 93.5%
residual activity (EPHB1 (human)): 60.8%
residual activity (FLT1 (human)): 34.4%
residual activity (FLT3 (human)): 0.782%
residual activity (GRK5 (human)): 82.7%
residual activity (GRK7 (human)): 62.2%
residual activity (HIPK3 (human)): 50.8%
residual activity (HIPK4 (human)): 61.7%
residual activity (KDR (human)): 13.8%
residual activity (KIT (human)): 28.7%
residual activity (MAPK9 (human)): 109%
residual activity (MAPKAPK5 (human)): 91.6%
residual activity (MARK2 (human)): 9.74%
residual activity (MERTK (human)): 11.5%
residual activity (MYLK (human)): 17.6%
residual activity (NEK2 (human)): 77.2%
residual activity (NLK (human)): 101%
residual activity (NTRK3 (human)): 1.87%
residual activity (NUAK1 (human)): 2.06%
residual activity (PIM1 (human)): 91.7%
residual activity (PRKACA (human)): 90%
residual activity (PRKCB2 (human)): 110%
residual activity (PRKCG (human)): 101%
residual activity (ROCK2 (human)): 73.5%
residual activity (SRPK3 (human)): 92.8%
residual activity (STK24 (human)): 22.2%
residual activity (STK4 (human)): 2.98%
residual activity (TNK2 (human)): 22.6%
residual activity (WNK3 (human)): 86.3%

O=C1NC(=O)C(c2cn(CCCn3ccnc3)c3ccccc23)=C1Nc1ccccc1
residual activity (ABL2 (human)): 91.8%
residual activity (ACVRL1 (human)): 95.9%
residual activity (AKT1 (human)): 101%
residual activity (AURKB (human)): 95.4%
residual activity (BRSK2 (human)): 93.6%
residual activity (CDK1 CCNA2 (human)): 88.9%
residual activity (CDK2 CCNE1 (human)): 81.8%
residual activity (CDK9 CCNT1 (human)): 51.3%
residual activity (CLK4 (human)): 38.9%
residual activity (CSNK1A1 (human)): 102%
residual activity (CSNK1E (human)): 96.7%
residual activity (CSNK1G3 (human)): 110%
residual activity (CSNK2A2 (human)): 87.6%
residual activity (EPHA2 (human)): 101%
residual activity (EPHB1 (human)): 102%
residual activity (FLT1 (human)): 85.7%
residual activity (FLT3 (human)): 8.21%
residual activity (GRK5 (human)): 90.9%
residual activity (GRK7 (human)): 86.3%
residual activity (HIPK3 (human)): 102%
residual activity (HIPK4 (human)): 90.7%
residual activity (KDR (human)): 90.2%
residual activity (KIT (human)): 90.2%
residual activity (MAPK9 (human)): 101%
residual activity (MAPKAPK5 (human)): 96.4%
residual activity (MARK2 (human)): 97.1%
residual activity (MERTK (human)): 86.1%
residual activity (MYLK (human)): 81.6%
residual activity (NEK2 (human)): 106%
residual activity (NLK (human)): 97%
residual activity (NTRK3 (human)): 40%
residual activity (NUAK1 (human)): 70.6%
residual activity (PIM1 (human)): 79.1%
residual activity (PRKACA (human)): 94%
residual activity (PRKCB2 (human)): 4.29%
residual activity (PRKCG (human)): 51.6%
residual activity (ROCK2 (human)): 100%
residual activity (SRPK3 (human)): 92.5%
residual activity (STK24 (human)): 51.7%
residual activity (STK4 (human)): 40.9%
residual activity (TNK2 (human)): 65.9%
residual activity (WNK3 (human)): 100%

O=c1cc(N2CCOCC2)oc2c1ccc1ccccc12
residual activity (ABL2 (human)): 101%
residual activity (ACVRL1 (human)): 100%
residual activity (AKT1 (human)): 101%
residual activity (AURKB (human)): 97.6%
residual activity (BRSK2 (human)): 92.6%
residual activity (CDK1 CCNA2 (human)): 103%
residual activity (CDK2 CCNE1 (human)): 119%
residual activity (CDK9 CCNT1 (human)): 99.1%
residual activity (CLK4 (human)): 101%
residual activity (CSNK1A1 (human)): 115%
residual activity (CSNK1E (human)): 92.5%
residual activity (CSNK1G3 (human)): 98.1%
residual activity (CSNK2A2 (human)): 78.6%
residual activity (EPHA2 (human)): 110%
residual activity (EPHB1 (human)): 104%
residual activity (FLT1 (human)): 95.5%
residual activity (FLT3 (human)): 104%
residual activity (GRK5 (human)): 106%
residual activity (GRK7 (human)): 107%
residual activity (HIPK3 (human)): 107%
residual activity (HIPK4 (human)): 101%
residual activity (KDR (human)): 86.8%
residual activity (KIT (human)): 105%
residual activity (MAPK9 (human)): 101%
residual activity (MAPKAPK5 (human)): 98.4%
residual activity (MARK2 (human)): 101%
residual activity (MERTK (human)): 96.4%
residual activity (MYLK (human)): 92.3%
residual activity (NEK2 (human)): 94.8%
residual activity (NLK (human)): 103%
residual activity (NTRK3 (human)): 103%
residual activity (NUAK1 (human)): 90.1%
residual activity (PIM1 (human)): 54.8%
residual activity (PRKACA (human)): 102%
residual activity (PRKCB2 (human)): 99.9%
residual activity (PRKCG (human)): 101%
residual activity (ROCK2 (human)): 95.9%
residual activity (SRPK3 (human)): 105%
residual activity (STK24 (human)): 103%
residual activity (STK4 (human)): 99.5%
residual activity (TNK2 (human)): 100%
residual activity (WNK3 (human)): 97.5%
